Measurements from US20220370434A1, “METHODS AND COMPOSITIONS FOR TREATING CANCER” (City of Hope, priority 2019, published 2022).

What was measured:
MA9.3ITD AML cells = assay: Xenograft AML mouse model with MA9.3ITD cells; conditions: cells pretreated 100 nM 48 hours; 2 mg/kg/day every other day i.p., ten treatments
Experimental: For xenograft AML models with NRGS mice, the leukemia AML cells, with high endogenous FTO expression, were pretreated with 100 nM FTO inhibitors for 48 hours before transplantation, and drug treatment was started at day 11 after transplantation.
Xenograft AML mouse models and AML PDX mouse models: NRG-SGM3 mice were used for both ‘human-in-mouse’ xeno-transplanation models and PDX models. […] For xenograft mouse, 0.1×10^6 MA9.3ITD cells were transplanted into NRGS recipient mice intravenously. Drug treatment was started from 10 days after transplanatation.

[1] = system: PD-L1 and PD-L2 in AML cells (MONOMAC 6); assay: Expression of PD-L1 and PD-L2 upon DNMT inhibitor treatment; conditions: for expression of PD-L1/2: in AML
Experimental: Expression of PD-L1, PD-L2, and m^6A abundance upon DNMT inhibitor treatment in AML cells was analyzed. MONOMAC 6 cells were treated with PBS, 1 μM, 3 μM, and 5 μM DAC for 48 hours.

[2] = system: primary murine MLL-AF9 (MA9) leukemic cells; assay: Colony forming assay; conditions: 1 μM
Experimental: MA9 murine leukemic cells were used for colony forming assay.
(§3) Serial colony-forming assay: The assay was employed as described previously with some modification (31). […] The dishes were incubated at 37° C. in a humidified atmosphere of 5% C02 in air for 7 days. Then, colony cells were collected and replated every 7 days with 20,000 cells/dish for 3 passages. Colony numbers were counted and compared for each passage.

HONO-1 AML cells = assay: Combination with DNMT inhibitors, cell growth; format: cell-based; conditions: 256 nM formula (IIa), 48 hours
Experimental: HONO-1 AML cells were treated with 256 nM compound of formula (IIa), 1000 nM AZA, 100 nM DAC, or their combinations for 48 hours. Effects of compound of formula (IIa), DAC, AZA and combined effects of compound of formula (IIa) with either DAC or AZA on HONO-1 AML cell growth was measured (FIG. 9C).

[3] = system: murine FLT3ITD/NPM1mut leukemic cells; assay: Colony forming assay; conditions: 10 nM or 50 nM
Experimental: as §3

NB4 cells = assay: Combination with DNMT inhibitors, cell growth; format: cell-based; conditions: 48 hours, 256 nM formula (IIa)
Experimental: Cell proliferation was measured. […] This experiment was repeated with NB4 cells. […] Synergistic inhibitory effect of FTO inhibitor together with DNMT inhibitor on cell proliferation was observed.
NB4 AML cells were treated with 256 nM compound of formula (IIa), 1000 nM AZA, 100 nM DAC, or their combinations for 48 hours. Effects of compound of formula (IIa), DAC, AZA and combined effects of compound of formula (IIa) with either DAC or AZA on […] AML cell growth was measured (FIG. 9D).

NOMO-1 cells = assay: Cell apoptosis assay; format: cell-based; conditions: 48 hour; 50, 200, 400 nM formula (I); 100, 500, 1000 nM formula (II)
Experimental: Cell cycle and apoptosis assays: Propidium Iodide (PI) DNA staining was chosen to assess the cells located at G0/G1, S, and G2/M stages; while Hoechest 33342 and Pyronin Y was selected to evaluate cells at G0, G1, and S/G2/M phases. For PI staining, 1*10^6 cells were collected, washed once with PBS, and suspended in 1 ml buffer with 0.05 mg/ml PI, 0.1% trisodium citrate, 0.02 mg/ml ribonuclease A, 0.3% NP-40, incubated at 37° C. for 30 minutes, and then applied to flow cytometer directly. As Hochest 33342/Pyronin Y staining, the cells were collected, washed, and re-suspended in 1 ml cell culture medium, stained with 10 μg/ml Hochest 33342 at 37° C. for 45 minutes, and further stained with 0.5 μg/ml Pyronin Y for additional 15 minutes at 37° C. The samples were transferred onto ice before subjected to flow cytometry. Cell apoptosis was validated with PE Annexin V Apoptosis Detection Kit I (559763, BD Biosciences) according to the instructed protocol. Flow cytometry was performed with Fortessa X20 and the related results were analyzed with FlowJo V10 software.

MONOMAC 6 cells = assay: Response to DNMT inhibitors after pretreatment; format: cell-based; conditions: pretreated 64 nM 48 hours; 100 nM DAC or 100 nM AZA
pancreatic cancer = assay: Anti-tumor effects in solid tumors; format: cell-based
Text: (§1) Besides in hematopoietic malignancy, FTO also plays oncogenic function in solid tumors, such as glioblastoma (GBM) and lung squamous cell carcinoma (LUSC). To broaden the application of the FTO inhibitors in additional cancers, expression of FTO in various types of cancers was adopted from cBioPortal for Cancer Genomics (http://www.cbioportal.org/).
(§2) Cell culture: For leukemia cells, U937 and MV4-11 were obtained from American Type Culture Collection (ATCC) and cultured in endotoxin-free RPMI1640 supplemented with 10% fetal bovine serum (FBS) (Gemini Bio-Products); K562 (ATCC) was cultured in IMDM with 10% FBS; NOMO-1, ML-2, NB4 were obtained from DSMZ and kept in RPM11640 with 10% FBS; SKNO-1 (DSMZ) was maintained in RPM11640 with 10% FBS and 10 ng/ml GM-CSF; MA9.3ITD (MLL-AF9 plus FLT3-ITD-transformed human CD34^+ cord blood) and MA9.3RAS (MLL-AF9 plus NRasG12D-transformed human CD34^+ cord blood), established by Dr. James Mulloy (30), were maintained in IMDM supplemented with 20% FBS. AML patient-derived primary cells were kept in IDMD supplemented with 20% FBS, 10 ng/ml human cytokines SCF, TPO, FLT3 ligand, IL-3, and IL-6. The glioblastoma cell lines, including 8MGBA, A172 and U87MG were originally maintained by Dr. David Plas from University of Cincinnati, and cultured in RPMI1640 with 10% FBS. Breast tumor cell lines, including ZR-75-1 and MDA-MB-231, were purchased from ATCC, and cultivated in RPMI1640 with 10% FBS. The cell lines from lung cancer, H1993, H2009, and H1437, and pancreatic cancer cells Capan-1 and miAPACA2 were kindly provided by Dr. Ravi Salgia from City of hope, and maintained in RPMI1640 with 10% FBS. All the cells are not among commonly misidentified cells lines, and were tested for Mycoplasma contamination yearly using a PCR Mycoplasma Detection Kit (Applied Biological Materials Inc.). In order to prevent potential contamination, all the mediums were supplemented with Penicillin-Streptomycin (15140122, Life Technologies) and Plasmocin prophylactic (Applied Biological Materials Inc.) according to the manufacture's instruction.

Glioma = assay: Anti-tumor effects in solid tumors; format: cell-based
Text: as §1, §2

breast tumors = assay: Anti-tumor effects in solid tumors; format: cell-based
Text: as §1, §2

[4] = Solubility and uptake after i.p. injection (dissection); format: physicochemical, mice; conditions: yellow/orange crystals in abdomen
Experimental: Mice from PDX mouse model were treated with compound of formula (I) via i.p. injection and later dissected.

AML cells = assay: Sensitization of AML cells to other therapeutic agents; conditions: for effect with TKI in inhibiting viability: human AML cells
[5] = system: AML patient-derived CD34+ cells; assay: Cell viability of AML patient-derived CD34+ cells; format: cell-based, human; conditions: 100 nM formula (I), 200 nM formula (II), 48 hours
[6] = system: primary AML cells from a relapsed AML patient; assay: AML PDX mouse model; conditions: i.p.
Experimental: (§4) The experiment was repeated with secondary BMT with MA9 leukemic cells. […] 1×10^6 mononuclear cells (MNCs) were isolated from bone marrow of the AML patients and transplanted into NRGS recipient mice. Drug treatment (5 mg/kg/day, every other day treatment, 10 times in total) was started from day 8 after transplantation.
As PDX mouse models, 1×10^6 AML patient derived cells were transplanted into NRGS recipient mice intravenously, and drug treatment was started from 7 days later.

Experimental for MA9 murine AML cells: as §4
The study was done following secondary BMT with murine MA9 cells, where drug treatment was initiated 7 days after BMT. […] Treatment strategy for DAC: 0.1 mg/kg/day, three times for one week, two weeks in total, i.p. injection.
The Lin^− progenitor cells were retrovirally transduced with MSCV-Neo-MA9 construct through two rounds of ‘spinoculation’ as described previously (31). […] For secondary BMT assays, primary leukemic mouse bone marrow cells (CD45.2+) were collected and sorted by flow cytometry when the mice developed full-blown AML. The cells were injected into sub-lethally irradiated (570 rads) secondary recipient mice with 0.1×10^6 donor cells per mouse via tail vein injection.

Structure (SMILES): Cc1noc(C)c1-c1cc(Cl)c(Nc2ccccc2C(=O)NO)c(Cl)c1 [FB23-2, reference compound]
- survival (Kaplan-Meier) (MA9.3ITD AML cells): lived significantly longer than the control groups

Structure (SMILES): Nc1ncn([C@@H]2O[C@H](CO)[C@@H](O)[C@H]2O)c(=O)n1 [AZA, 5-azacytidine]
- expression of PD-L1/2 [1]: upregulation of PD-L1/2

Structure (SMILES): Nc1ncn([C@H]2C[C@H](O)[C@@H](CO)O2)c(=O)n1 [DAC, 5-aza-2′-deoxycytidine]
- expression of PD-L1 and PD-L2 ([1]; MONOMAC 6, 1 μM, 3 μM, 5 μM, 48 hours): induced expression of PD-L1 and PD-L2 in a dose dependent manner
- expression of PD-L1/2 [1]: upregulation of PD-L1/2

Structure (SMILES): O=C(O)c1cc(-c2ccc(-c3ccccc3)cc2)nc2ccccc12 [formula (IIa)]
- colony forming activity [2]: decreased colony forming activity
- inhibitory effect on colony forming activity compared with formula (II) [2]: slightly stronger inhibitory effect
- effect with DAC on cell growth (HONO-1 AML cells; 100 nM DAC): synergistic effects
- effect with AZA on cell growth (HONO-1 AML cells; 1000 nM AZA): synergistic effects
- inhibitory effect on colony forming activity compared with formula (II) [3]: slightly stronger inhibitory effect
- colony forming activity ([3]; b415): dose dependent decreased colony forming activity
- effect with DAC on cell growth (NB4 cells; 100 nM DAC): synergistic effects
- effect with AZA on cell growth (NB4 cells; 1000 nM AZA): synergistic effects

Structure (SMILES): C(=N\NC1=NCCN1)/c1c2ccccc2c(/C=N/NC2=NCCN2)c2ccccc12 [formula (I)]
- cell apoptosis (NOMO-1 cells): dose-dependent increase in cell apoptosis
- inhibition of cell proliferation by DAC or AZA after pretreatment (MONOMAC 6 cells): increased inhibition in cell proliferation
- growth (pancreatic cancer): growth disadvantage
- growth (Glioma): growth disadvantage
- growth (breast tumors): growth disadvantage
- solubility and uptake [4]: extreme low solubility and uptake
- sensitization to ATRA, DNR, Ara-C, Aza and DAC (AML cells): sensitize AML cells
- effect with TKI in inhibiting viability (AML cells): synergize with TKI
- cell viability [5]: significantly decreased cell viability of AML

Structure (SMILES): Cc1c(-c2ccc(-c3ccccc3F)cc2)nc2ccc(F)cc2c1C(=O)O [formula (II)]
- cell apoptosis (NOMO-1 cells): dose-dependent increase in cell apoptosis
- growth (pancreatic cancer): growth disadvantage
- growth (Glioma): growth disadvantage
- growth (breast tumors): growth disadvantage
- anti-leukemia effect, survival (Kaplan-Meier) ([6]; 5 mg/kg/day every other day, 10 times, in PBS): strong anti-leukemia effect
- anti-leukemia effect, engraftment of AML patient cells into bone marrow ([6]; hCD45 and hCD33 positive cells at day 26): strong anti-leukemia effect
- effect with DAC on survival (Kaplan-Meier) (MA9 murine AML cells; 5 mg/kg/day FTO inhibitor, DAC 0.1 mg/kg/day i.p.): synergistic effect
- anti-leukemia effects (delaying leukemogenesis, improving survival) (MA9 murine AML cells; 5 mg/kg/day every other day, ten treatments, i.p. or i.v. (micelle)): promising anti-leukemia effects
- sensitization to ATRA, DNR, Ara-C, Aza and DAC (AML cells): sensitize AML cells
- effect with TKI in inhibiting viability (AML cells): synergize with TKI
- cell viability [5]: significantly decreased cell viability of AML
